{
  "source": "patent US20230338510A1",
  "about": "“NOVEL C[…] EPITOPE P[…] AND USE THEREOF” (SHANGHAI INSTITUTE OF MATERIA MEDICA, CHINESE ACADEMY OF …, priority 2020, published 2023)",
  "key": {"[1]": {"target": "human ACE2 (Homo sapiens, UniProt Q9BYF1)", "sequence (Q9BYF1 18-805)": "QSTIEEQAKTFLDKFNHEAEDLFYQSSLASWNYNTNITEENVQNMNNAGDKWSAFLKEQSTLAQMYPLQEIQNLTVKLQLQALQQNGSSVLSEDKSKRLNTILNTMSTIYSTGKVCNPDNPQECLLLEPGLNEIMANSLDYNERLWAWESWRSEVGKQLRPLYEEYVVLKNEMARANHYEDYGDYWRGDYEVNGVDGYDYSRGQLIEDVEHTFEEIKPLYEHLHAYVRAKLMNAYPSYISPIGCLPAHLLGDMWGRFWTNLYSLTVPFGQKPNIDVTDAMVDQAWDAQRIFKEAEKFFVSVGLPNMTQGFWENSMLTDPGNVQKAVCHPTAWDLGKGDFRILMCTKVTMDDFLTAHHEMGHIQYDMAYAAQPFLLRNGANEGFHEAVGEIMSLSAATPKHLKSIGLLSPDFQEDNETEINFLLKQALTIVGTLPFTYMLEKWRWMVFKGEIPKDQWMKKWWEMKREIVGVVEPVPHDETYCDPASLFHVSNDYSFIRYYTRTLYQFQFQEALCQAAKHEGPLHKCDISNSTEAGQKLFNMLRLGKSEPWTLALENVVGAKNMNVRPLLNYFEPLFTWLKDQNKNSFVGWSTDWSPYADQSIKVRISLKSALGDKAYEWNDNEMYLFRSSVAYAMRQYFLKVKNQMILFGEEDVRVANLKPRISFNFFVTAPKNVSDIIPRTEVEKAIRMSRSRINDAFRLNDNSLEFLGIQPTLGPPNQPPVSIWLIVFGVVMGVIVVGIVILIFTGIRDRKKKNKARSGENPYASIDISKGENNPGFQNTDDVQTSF", "assay": "in vitro binding of biotin-labeled LP2 to ACE2 by ELISA", "conditions": "biotin-labeled polypeptide 1, 0.5 and 0.25 µg/mL, ACE2-coated plate; FIG. 10", "method": "In this example, LP2 was labeled with biotin, and its binding ability with human ACE2 was detected by ELISA.\nThe specific determination method is as follows: the ELISA plate was coated overnight with 10ug/mL ACE2 and blocked, then biotin-labeled polypeptides of different concentrations (1, 0.5 and 0.25 µg/mL) were added. After incubated at 37° C. for 1.5 hours, HRP-Streptavidin A diluted in 1:5000 was added, and incubated at 37° C. for 1 hour. The plate was washed, then TMB was added for color development, and the plate was read at 450 nm wavelength after termination."}, "[2]": {"test_system": "RBD", "assay_type": "in vivo", "conditions": "cynomolgus monkeys, subcutaneous immunization with adjuvant, 14 days after the second immunization; FIG. 8"}, "[3]": {"test_system": "binding of RBD to ACE2", "assay": "competitive ELISA: ability of antiserum to block the binding of RBD and ACE2", "assay_type": "in vivo, cynomolgus monkeys"}},
  "data": [
    {"sequence": "AKFVAAWTLKAAAGGGGYGFQPTNGVGYQPGGGGNYLYRLFRKSNLKPF [LP2]", "values": [
      {"measurement": "binding ability with ACE2", "setting": "[1]", "value": "strong binding ability"},
      {"measurement": "titer of antibodies against RBD", "setting": "[2]", "value": "higher titer of antibodies against RBD was produced"},
      {"measurement": "blocking effect of antiserum on the binding of RBD to ACE2", "setting": "[3]; antiserum at 8-64 times of dilution", "value": "significant blocking effect"},
      {"measurement": "inhibition rate", "setting": "[3]; antiserum at 8 times of dilution", "value": "more than 60%"},
      {"measurement": "inhibition rate", "setting": "[3]; antiserum at 16 times of dilution", "value": "more than 40%"}
    ]}
  ]
}
